{"source": "patent US8809010B2", "about": "“Method for prophylactic treatment of alzheimer's disease using inhibitors of glutaminyl cyclase and glutamate cyclases” (Probiodrug AG, priority 2003, dated 2014)", "key": {"LNZ-308 cells": {"system": "LNZ-308 cells", "experiment": "Aβ in conditioned medium after transient APP expression, BACE I inhibition, ELISA", "format": "cell-based", "protocol": "(§1) The constructs are depicted in FIG. 33. The APP-encoding plasmids differed with respect to the sequence surrounding the β-secretase cleavage site, i.e. either carried the swedish mutation (KM595/596NL) or the wild-type sequence (K595M596) at the β-secretase-cleavage site. Furthermore, the constructs encoded either the London (V642I) or wild-type sequence (V642) near the γ-secretase cleavage site. The swedish mutation leads to an elevated generation of Aβ due to enhanced cleavage by the β-secretase BACE I. The London mutation mediates enhanced formation of Aβ42 peptides compared to the wild-type sequence without affecting the total Aβ generation.\n(§2) In order to substantiate the role of these newly discovered enzyme activity generating the molecular precursor of pGlu-Aβ peptides, inhibitors of the known β-secretase BACE I were employed in experiments based on transient expression of the plasmid constructs outlined in FIG. 33. Similar to the observations with the APP(N3Q) constructs, N-terminally truncated peptides were generated mainly after APP-WT and APP-London expression.\n(§3) Aβ(x-40), Aβ(x-42) and Aβ (N3pE-42)-specific sandwich ELISAs (all from IBL, Hamburg) were performed according to the manufacturer's manual. […] After applying the stop solution the absorption at 450 nm was measured using a microplate reader (TECAN Sunrise). […]"}, "HEK293 cells": {"system": "HEK293 cells", "experiment": "Aβ in conditioned medium after transient APP expression, BACE I inhibition, ELISA", "format": "cell-based, human", "protocol": "as §1, §2, §3"}}}
{"smiles": "C[C@@H](NC(=O)c1cc(C(=O)N[C@@H](Cc2ccccc2)[C@H](O)CNC2CC2)cc(N(C)S(C)(=O)=O)c1)c1ccccc1", "note": "[BACE IV]", "values": [{"measurement": "total Aβ lowering", "setting": "LNZ-308 cells", "result": "only marginal efficacy"}, {"measurement": "Aβ(1-40) and Aβ(1-42)", "setting": "HEK293 cells", "result": "reduced the N-terminally intact Aβ-peptides"}, {"measurement": "total Aβ40-concentration", "setting": "HEK293 cells; HEK293 cells", "result": "did not influence the total Aβ40-concentration significantly"}]}
